Marks after values point to notes of the source that are not given here.
Key:
[1] = test system: Cox4i1; assay: Cox4i1 gene expression in aorta of DKO mice (qPCR); conditions: 12 weeks treatment, relative RNA expression, mean ± SD
Procedure: (§1) Total RNA from monocytes, macrophages and vascular tissues was extracted with TRIzol reagent (Invitrogen) and purified on (mi)RNeasy Mini Kit columns (Qiagen). […] First-strand cDNA was generated from total RNA with the SuperScript VILO cDNA synthesis kit (Invitrogen). qPCR analysis was performed on a 7500 Fast Real-Time PCR system using Fast SYBRGreen master mix, according to the supplier protocols (Applied Biosystems). […] For each RNA and microRNA sample, the expression levels of the RNAs as described herein were compared and normalized to reference housekeeping RNAs or microRNAs. […] We compared them with non-treated DKO at 24 weeks. […] Food and water were available ad libitum. […] All mice were sacrificed by Nembutal overdose at the age of 24 weeks (72, 73).

[2] = test system: DKO (LDL-R−/−×ob/ob) mice; conditions: mean ± SD
Procedure: Breeding and genotyping of LDL-receptor deficient, leptin-deficient ob/ob, and DKO (LDL-R^−/−×ob/ob) mice, on the C57BL/6J background, were performed as previously described (72, 73).
To convert from mg/dL to mM, we divided glucose by 18 (=molecular weight), triglycerides by 89 and total cholesterol by 39. […] To determine glucose tolerance, glucose was measured in samples obtained by tail bleeding before and 15, 30, 60, 120 and 240 minutes after intraperitoneal administration of glucose (20% glucose solution; 2 g/kg). Plasma adiponectin […] were measured with specific mouse ELISA (R&D Systems).

[3] = test system: Tfam; assay: Tfam gene expression in aorta of DKO mice (qPCR); conditions: 12 weeks treatment, relative RNA expression, mean ± SD
Procedure: as §1

[4] = test system: Cox1; assay: Cox1 gene expression in aorta of DKO mice (qPCR); conditions: 12 weeks treatment, relative RNA expression, mean ± SD
Procedure: as §1

[5] = DKO mice at 24 weeks, 12 weeks treatment in diet

CN(CCOc1ccc(CC2SC(=O)NC2=O)cc1)c1ccccn1 (centres unmarked) [Rosiglitazone, rosiglitazone]
Cox4i1 gene expression in aorta [1]: 2.20 ± 0.64***^/$$/££ | Weight ([2]; DKO mice at 24 weeks, 12 weeks treatment in diet (fenofibrate 50, rosiglitazone 10 mg/kg/day)): 55 ± 3.6*^/$ g | Insulin ([2]; DKO mice at 24 weeks, 12 weeks treatment in diet, fasting plasma): 69 ± 42 ^ mU/L | TG (triglyceride) [2, 5]: 192 ± 96 ^ mg/dl | Total C (cholesterol) [2, 5]: 700 ± 139*^/$$ mg/dl | Glucose ([2]; DKO mice at 24 weeks, 12 weeks treatment in diet, overnight fast): 88 ± 18*^/$/£ mg/dl | ADN (adiponectin) ([2]; DKO mice at 24 weeks, 12 weeks treatment in diet, plasma): 16 ± 2.3***^/£££ μg/ml | HOMA-IR ([2]; DKO mice, 12 weeks treatment, fasting insulin × fasting glucose / 22.5): 16 ± 11 ^ | Tfam gene expression in aorta [3]: 1.57 ± 0.50***^/$/££ | Cox1 gene expression in aorta [4]: 1.16 ± 0.40***^/$/£££

CC(C)OC(=O)C(C)(C)Oc1ccc(C(=O)c2ccc(Cl)cc2)cc1 [Fenofibrate]
AUC of IPGTT ([2]; DKO mice, 12 weeks treatment, intraperitoneal glucose tolerance test, glucose 2 g/kg): 75 ± 15 ×10^3

— patent publication US10704097B2, “Oxidative stress and cardiovascular disease events” (KATHOLIEKE UNIVERSITEIT LEUVEN, priority 2014, dated 2020)
